Target: T1, ALDH2 (Homo sapiens, UniProt P05091)
T1 sequence (P05091 18-517): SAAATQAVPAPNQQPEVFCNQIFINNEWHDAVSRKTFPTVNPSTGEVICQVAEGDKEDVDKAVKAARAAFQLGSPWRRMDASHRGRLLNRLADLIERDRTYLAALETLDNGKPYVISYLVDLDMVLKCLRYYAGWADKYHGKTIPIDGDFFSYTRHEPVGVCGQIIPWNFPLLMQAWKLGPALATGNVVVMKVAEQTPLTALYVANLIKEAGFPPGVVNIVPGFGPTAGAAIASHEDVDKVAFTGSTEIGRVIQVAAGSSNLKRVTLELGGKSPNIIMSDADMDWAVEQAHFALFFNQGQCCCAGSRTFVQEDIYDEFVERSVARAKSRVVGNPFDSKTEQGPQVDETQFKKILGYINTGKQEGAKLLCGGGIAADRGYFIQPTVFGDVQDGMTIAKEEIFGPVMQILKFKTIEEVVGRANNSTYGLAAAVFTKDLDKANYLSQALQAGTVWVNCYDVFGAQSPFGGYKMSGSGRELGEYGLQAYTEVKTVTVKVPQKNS
Test: Selectivity biochemical assay, NAD(P)H-Glo Detection System
Description: Materials: ALDH2 was purchased from Abnova. Tris(hydroxymethyl)aminomethane (Tris) was purchased from MP Biomedicals. TCEP, ethylenediaminetetraacetic acid (EDTA), propionaldehyde, DMSO and Tween-20 were purchased from Sigma. Nicotinamide adenine dinucleotide (NAD) was obtained from Abcam. The NAD(P)H-Glo™ Detection System was purchased from Promega. White, non-binding surface, 384 well plates were supplied by Corning (#3574).
Method: Inhibition of ALDH1A3 was assessed using the NAD(P)H-Glo™ Detection System (Cat. No. G9062) from Promega. This assay detects the production of NADH from NAD by ALDH1A3 via the coupled enzymatic conversion of a proluciferin reductase substrate to generate a luminescent signal. Inhibition of ALDH1A3 by small molecule inhibitors will result in reduction or abrogation of luminescence signal increase above background. Inhibition of ALDH1A1, ALDH1A2 and ALDH2 (selectivity assays) were assessed using the same assay.
Compounds were dosed into Corning 384 well assay plates using an Echo acoustic dispenser to give 10 point curves in a 3-fold dilution series. Compounds were dispensed from a 20 mM DMSO stock and initially screened at a top concentration of 20 μM (ALDH1A3) or 250 μM (ALDH1A1, ALDH1A2 & ALDH2). Enzyme was added to the plate in a 5 μL volume, according to the final concentrations in table 1 below, and pre-incubated with compound for 30 minutes at room temperature before the addition of 5 μL of the substrate (propionaldehyde) and cofactor (NAD), to effect final concentrations equal to the Km as shown in Table 1. The assay buffer used consisted of 40 mM Tris for 1A1 (pH 7.6), 1A2 (pH 7.6) and 1A3 (pH 9.0) and 10 mM Tris for ALDH2 (pH 8.0) supplemented with 1 mM TCEP, 0.01% Tween-20, 0.1 mM EDTA. The reaction mix was incubated at 26° C. on a shaking incubator for 30 minutes before being stopped by the addition of 10 μL of the Promega detection reagent and 100×IC50 of inhibitors of the respective isoforms. After stopping the reaction the plate was incubated for 60 minutes at room temperature and the luminescence signal read on a PheraStar FS microplate reader (BMG Labtech) and resulting IC50 values were calculated using Dotmatics software.
Enzyme, substrate and cofactor concentrations were selected to ensure the reaction ran under initial velocity conditions.

`O=C1CCc2cc(OCCN3CC(O)CC3c3cccc(F)c3)ccc2N1` (mixture of isomers) [ALDHI-2035, 6-[2-[2-(3-fluorophenyl)-4-hydroxy-pyrrolidin-1-yl]ethoxy]-3,4-dihydro-1H-quinolin-2-one] and `O=C1CCc2cc(OCCN3CCCC3c3cccc(F)c3)ccc2N1` (stereo not shown) [ALDHI-2001, 6-[2-[2-(3-fluorophenyl)pyrrolidin-1-yl]ethoxy]-3,4-dihydro-1H-quinolin-2-one] cannot be ordered by IC50: at least 100 µM for the first, at least 100 µM for the second.

`CC1CN(CCOc2ccc3c(c2)CCC(=O)N3)C(c2ccccc2)CO1` (mixture of isomers) [ALDHI-2042, 6-[2-(2-methyl-5-phenyl-morpholin-4-yl)ethoxy]-3,4-dihydro-1H-quinolin-2-one] and `Cc1ccccc1C1CCCN1CCOc1ccc2c(c1)CCC(=O)N2` (stereo not shown) [ALDHI-2012, 6-[2-[2-(o-tolyl)pyrrolidin-1-yl]ethoxy]-3,4-dihydro-1H-quinolin-2-one] cannot be ordered by IC50: at least 100 µM for the first, at least 100 µM for the second.

`O=C1CCc2cc(NC(=O)c3sc(N4CCOCC4)nc3-c3cccc(F)c3)ccc2N1` [ALDHI-1001, 4-(3-fluorophenyl)-2-morpholino-N-(2-oxo-3,4-dihydro-1H-quinolin-6-yl)thiazole-5-carboxamide] and `O=C1CCc2cc(NC(=O)c3sc(N4CCNCC4)nc3-c3cccc(F)c3)ccc2N1` [ALDHI-1005, 4-(3-fluorophenyl)-N-(2-oxo-3,4-dihydro-1H-quinolin-6-yl)-2-piperazin-1-yl-thiazole-5-carboxamide] cannot be ordered by IC50: at least 100 µM for the first, at least 100 µM for the second.

`CN(C)c1nc(-c2cccc(F)c2)c(C(=O)Nc2ccc3c(c2)CCC(=O)N3)s1` [ALDHI-1002, 2-(dimethylamino)-4-(3-fluorophenyl)-N-(2-oxo-3,4-dihydro-1H-quinolin-6-yl)thiazole-5-carboxamide] and `O=C1CCc2cc(NC(=O)c3scnc3-c3cccc(F)c3)ccc2N1` [ALDHI-1003, 4-(3-fluorophenyl)-N-(2-oxo-3,4-dihydro-1H-quinolin-6-yl)thiazole-5-carboxamide] cannot be ordered by IC50: at least 100 µM for the first, at least 100 µM for the second.

`O=C1CCc2cc(NC(=O)c3sc(N4CC(O)C4)nc3-c3cccc(F)c3)ccc2N1` [ALDHI-1004, 4-(3-fluorophenyl)-2-(3-hydroxyazetidin-1-yl)-N-(2-oxo-3,4-dihydro-1H-quinolin-6-yl)thiazole-5-carboxamide] and `O=C1CCc2cc(NC(=O)c3ocnc3-c3cccc(F)c3)ccc2N1` [ALDHI-1019, 4-(3-fluorophenyl)-N-(2-oxo-3,4-dihydro-1H-quinolin-6-yl)oxazole-5-carboxamide] cannot be ordered by IC50: at least 100 µM for the first, at least 100 µM for the second.

`O=C1CCc2cc(NC(=O)c3c[nH]nc3-c3cccc(F)c3)ccc2N1` [ALDHI-1006, 3-(3-fluorophenyl)-N-(2-oxo-1,2,3,4-tetrahydroquinolin-6-yl)-1H-pyrazole-4-carboxamide] and `O=C1CCc2cc(NC(=O)c3cncnc3-c3cccc(F)c3)ccc2N1` [ALDHI-1018, 4-(3-fluorophenyl)-N-(2-oxo-3,4-dihydro-1H-quinolin-6-yl)pyrimidine-5-carboxamide] cannot be ordered by IC50: 10 to 100 µM for the first, at least 100 µM for the second.

`O=C1CCc2cc(NC(=O)c3ccccc3-c3cccc(F)c3)ccc2N1` [ALDHI-1007, 3′-fluoro-N-(2-oxo-1,2,3,4-tetrahydroquinolin-6-yl)-[1,1′-biphenyl]-2-carboxamide] and `O=C1CCc2cc(NC(=O)c3sccc3-c3cccc(F)c3)ccc2N1` [ALDHI-1022, 3-(3-fluorophenyl)-N-(2-oxo-3,4-dihydro-1H-quinolin-6-yl)thiophene-2-carboxamide] cannot be ordered by IC50: at least 100 µM for the first, at least 100 µM for the second.

`Cc1noc(-c2ccccc2C(=O)Nc2ccc3c(c2)CCC(=O)N3)n1` [ALDHI-1008, 2-(3-methyl-1,2,4-oxadiazol-5-yl)-N-(2-oxo-1,2,3,4-tetrahydroquinolin-6-yl)benzamide] and `O=C1CCc2cc(NC(=O)c3scnc3-c3ccccc3F)ccc2N1` [ALDHI-1021, 4-(2-fluorophenyl)-N-(2-oxo-3,4-dihydro-1H-quinolin-6-yl)thiazole-5-carboxamide] cannot be ordered by IC50: at least 100 µM for the first, at least 100 µM for the second.

`O=C1CCc2cc(NC(=O)c3ncsc3-c3cccnc3)ccc2N1` [ALDHI-1010, N-(2-oxo-3,4-dihydro-1H-quinolin-6-yl)-5-(3-pyridyl)thiazole-4-carboxamide] and `O=C1CCc2cc(NC(=O)c3ncsc3-c3cccc(F)c3)ccc2N1` [ALDHI-1014, 5-(3-fluorophenyl)-N-(2-oxo-3,4-dihydro-1H-quinolin-6-yl)thiazole-4-carboxamide] cannot be ordered by IC50: at least 100 µM for the first, at least 100 µM for the second.

`O=C1CCc2cc(NC(=O)c3ncsc3-c3ccsc3)ccc2N1` [ALDHI-1011, N-(2-oxo-3,4-dihydro-1H-quinolin-6-yl)-5-(3-thienyl)thiazole-4-carboxamide] and `O=C1CCc2cc(NC(=O)c3scnc3-c3cccs3)ccc2N1` [ALDHI-1023, N-(2-oxo-3,4-dihydro-1H-quinolin-6-yl)-4-(2-thienyl)thiazole-5-carboxamide] cannot be ordered by IC50: at least 100 µM for the first, at least 100 µM for the second.

`O=C1CCc2cc(NC(=O)c3scnc3-c3ccccc3Cl)ccc2N1` [ALDHI-1012, 4-(2-chlorophenyl)-N-(2-oxo-3,4-dihydro-1H-quinolin-6-yl)thiazole-5-carboxamide] and `Cc1cccc(-c2ncsc2C(=O)Nc2ccc3c(c2)CCC(=O)N3)c1` [ALDHI-1013, 4-(m-tolyl)-N-(2-oxo-3,4-dihydro-1H-quinolin-6-yl)thiazole-5-carboxamide] cannot be ordered by IC50: at least 100 µM for the first, at least 100 µM for the second.

`O=C1COc2cc(NC(=O)c3scnc3-c3cccc(F)c3)ccc2N1` [ALDHI-1016, 4-(3-fluorophenyl)-N-(3-oxo-4H-1,4-benzoxazin-7-yl)thiazole-5-carboxamide] and `O=C1CCc2cc(NC(=O)c3scnc3-c3ccc(F)cc3)ccc2N1` [ALDHI-1017, 4-(4-fluorophenyl)-N-(2-oxo-1,2,3,4-tetrahydroquinolin-6-yl)thiazole-5-carboxamide] cannot be ordered by IC50: at least 100 µM for the first, at least 100 µM for the second.

`O=C1CCc2cc(OCCN3CCCC3c3ccccc3F)ccc2N1` (stereo not shown) [ALDHI-2002, 6-[2-[2-(2-fluorophenyl)pyrrolidin-1-yl]ethoxy]-3,4-dihydro-1H-quinolin-2-one] and `O=C1CCc2cc(OCCN3CCC[C@@H]3c3cccc(F)c3)ccc2N1` [ALDHI-2007, 6-[2-[(2R)-2-(3-fluorophenyl)pyrrolidin-1-yl]ethoxy]-3,4-dihydro-1H-quinolin-2-one] cannot be ordered by IC50: at least 100 µM for the first, at least 100 µM for the second.

`O=C1CCc2cc(OCCN3CCCC3c3ccc(F)cc3)ccc2N1` (stereo not shown) [ALDHI-2003, 6-[2-[2-(4-fluorophenyl)pyrrolidin-1-yl]ethoxy]-3,4-dihydro-1H-quinolin-2-one] and `Cc1ccc(C2CCCN2CCOc2ccc3c(c2)CCC(=O)N3)cc1` (stereo not shown) [ALDHI-2010, 6-[2-[2-(p-tolyl)pyrrolidin-1-yl]ethoxy]-3,4-dihydro-1H-quinolin-2-one] cannot be ordered by IC50: 10 to 100 µM for the first, at least 100 µM for the second.

`O=C1CCc2cc(OCCN3CCCC3c3ccncc3)ccc2N1` (stereo not shown) [ALDHI-2004, 6-[2-[2-(4-pyridyl)pyrrolidin-1-yl]ethoxy]-3,4-dihydro-1H-quinolin-2-one] and `O=C1CCc2cc(OCCN3CCCC3c3cccnc3)ccc2N1` (stereo not shown) [ALDHI-2005, 6-[2-[2-(3-pyridyl)pyrrolidin-1-yl]ethoxy]-3,4-dihydro-1H-quinolin-2-one] cannot be ordered by IC50: at least 100 µM for the first, at least 100 µM for the second.

`O=C1CCc2cc(OCCN3CCCC3c3ccccn3)ccc2N1` (stereo not shown) [ALDHI-2006, 6-[2-[2-(2-pyridyl)pyrrolidin-1-yl]ethoxy]-3,4-dihydro-1H-quinolin-2-one] and `Cc1cccc(C2CCCN2CCOc2ccc3c(c2)CCC(=O)N3)c1` (stereo not shown) [ALDHI-2011, 6-[2-[2-(m-tolyl)pyrrolidin-1-yl]ethoxy]-3,4-dihydro-1H-quinolin-2-one] cannot be ordered by IC50: at least 100 µM for the first, at least 100 µM for the second.

`O=C1CSc2cc(OCCN3CCCC3c3cccc(F)c3)ccc2N1` (stereo not shown) [ALDHI-2008, 7-[2-[2-(3-fluorophenyl)pyrrolidin-1-yl]ethoxy]-4H-1,4-benzothiazin-3-one] and `O=C1COc2cc(OCCN3CCCC3c3cccc(F)c3)ccc2N1` (stereo not shown) [ALDHI-2009, 7-[2-[2-(3-fluorophenyl)pyrrolidin-1-yl]ethoxy]-4H-1,4-benzoxazin-3-one] cannot be ordered by IC50: at least 100 µM for the first, at least 100 µM for the second.
